These results are taken from patent US11827628B2, “Compositions and methods for inhibition of the JAK pathway” (Rigel Pharmaceuticals, Inc., priority 2005, dated 2023).

Assay [1] relates to IL-4 stimulated expression of CD23 in human Ramos B cells (JAK-1 and JAK-3). The assay is described as follows: Assay for Ramos B-Cell Line Stimulated with IL-4 (CD23 upregulation, FACS). In kind it is cell-based. To be noted: Ramos B-cell line stimulated with IL-4; CD23 expression by FACS; read-out: IC50, Example 41. In short, it runs like this: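 Compound effect on IL-4-driven JAK1/JAK3 signalling is gauged as CD23 surface expression, measured by FACS after 20-24 h of stimulation with IL-4 at 50 units/mL final. A 1 h compound pre-treatment at 37 °C precedes stimulation, and IC50 is derived from the results.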
(In flow cytometry, cells or beads pass a laser one at a time.)

Another assay has as its system Primary human T-cells. Kind of assay: Primary Human T-Cell Proliferation Assay Stimulated with IL-2 (CellTiter-Glo). To be noted: primary human T-cell proliferation stimulated with IL-2; read-out: IC50, Example 42. It is filed as cell-based. The essentials: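 IC50 derived from CellTiter-Glo ATP signal after 72 hours of IL-2-driven proliferation at 37° C. Cells: primary human T-cells from blood, stimulated beforehand 3-4 days on anti-CD3/anti-CD28 with IL-2, then rested from IL-2 before compound exposure in duplicate; IL-2-free wells served as unstimulated control.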
For orientation: Cellular ATP, detected with luciferase, serves as a proxy for viable cell number.

Structures are written as SMILES.

`CC(C)(Oc1ccc(Nc2nc(Nc3cccc(S(N)(=O)=O)c3)ncc2F)cc1)C(N)=O` [Compound I-126, N4-[4-(1-Aminocarbonyl-1-methyl)ethoxy]phenyl-N2-(3-aminosulfonyl)phenyl-5-fluoro-2,4-pyrimidinediamine]: the IC50 (usually the concentration needed to halve the response being measured) in assay [1] was 355 nM; in the assay on Primary human T-cells it was 610 nM.

On to `Cc1ccc(Nc2ncc(F)c(Nc3ccc(OC(C)(C)C(N)=O)cc3)n2)cc1S(N)(=O)=O` [Compound I-127, N4-[4-(1-Aminocarbonyl-1-methyl)ethoxy]phenyl-N2-(3-aminosulfonyl-4-methyl)phenyl-5-fluoro-2,4-pyrimidinediamine], for which the IC50 in assay [1] was 233 nM; with Primary human T-cells, 510 nM.

For `Cc1ccc(Nc2ncc(F)c(Nc3ccc(OCc4ccccn4)cc3)n2)cc1S(N)(=O)=O` [Compound I-160, N2-(3-Aminosulfonyl-4-methylphenyl)-5-fluoro-N4-[4-(2-pyridinyl)methyleneoxyphenyl]-2,4-pyrimidinediamine], the results for the IC50 (in assay [1]; in the assay on Primary human T-cells) were 130 nM and 248 nM, respectively.

In the case of `NS(=O)(=O)c1ccc(Nc2ncc(F)c(Nc3ccc(OCc4ccccn4)cc3)n2)cc1` [Compound I-163, N2-(4-Aminosulfonylphenyl)-5-fluoro-N4-[4-(2-pyridinyl)methyleneoxyphenyl]-2,4-pyrimidinediamine], the IC50 in assay [1] turned out to be 177 nM; in the assay with Primary human T-cells, 439 nM.

In the case of `CCN(CC)CCNS(=O)(=O)c1ccc(Nc2ncc(F)c(Nc3ccc(OCc4ccccn4)cc3)n2)cc1` [Compound I-165, N2-[4-(2-N,N-Diethylaminoethyl)aminosulfonylphenyl)-5-fluoro-N4-[4-(2-pyridinyl)methyleneoxyphenyl]-2,4-pyrimidinediamine], the IC50 worked out at 245 nM in assay [1] and 446 nM with Primary human T-cells.

As for `CNS(=O)(=O)c1cc(Nc2ncc(F)c(Nc3ccc(-c4ccccn4)c(OCF)c3)n2)ccc1C` [Compound I-173, 5-Fluoro-N2-[3-N-(methyl)aminosulfonyl-4-methylphenyl]-N4-[4-(2-pyridinyl)-3-fluoromethyleneoxyphenyl]-2,4-pyrimidinediamine], the IC50 in assay [1] amounted to 115 nM; in the assay with Primary human T-cells it was 907 nM.

For the compound `Cc1cnc(Nc2cccc(S(N)(=O)=O)c2)nc1Nc1ccc(OCc2ccccn2)cc1` [Compound I-179, N2-(3-Aminosulfonylphenyl)-5-methyl-N4-[4-(2-pyridinyl)methyleneoxyphenyl]-2,4-pyrimidinediamine], the figures for the IC50 (in assay [1]; in the assay on Primary human T-cells) were 24.3 nM and 11.8 nM, respectively.

In the case of `CNS(=O)(=O)c1cc(Nc2ncc(C)c(Nc3ccc(OCc4ccccn4)cc3)n2)ccc1C` [Compound I-180, 5-Methyl-N2-[3-(N-methylaminosulfony)-4-methylphenyl]-N4-[4-(2-pyridinyl)methyleneoxyphenyl]-2,4-pyrimidinediamine], the IC50 in assay [1] is 62.4 nM; in the assay on Primary human T-cells, 28.7 nM.

With `Cc1ccc(Nc2ncc(F)c(Nc3cccc(OCc4cccnc4)c3)n2)cc1S(N)(=O)=O` [Compound I-183, N2-(3-Aminosulfonyl-4-methylphenyl)-5-fluoro-N4-[3-(3-pyridinyl)methyleneoxyphenyl]-2,4-pyrimidinediamine], the figures for the IC50 (in assay [1]; in the assay on Primary human T-cells) were 249 nM and 1830 nM, respectively.

As to `CNS(=O)(=O)c1cc(Nc2ncc(F)c(Nc3cccc(OCc4cccnc4)c3)n2)ccc1C` [Compound I-184, 5-Fluoro-N2-[3-(N-methylaminosulfony)-4-methylphenyl]-5-fluoro-N4-[3-(3-pyridinyl)methyleneoxyphenyl]-2,4-pyrimidinediamine], the IC50 turned out to be 486 nM in assay [1] and 2570 nM in the assay on Primary human T-cells.

Consider `CCN(CC)CCNS(=O)(=O)c1ccc(Nc2ncc(F)c(Nc3cccc(OCc4cccnc4)c3)n2)cc1` [Compound I-186, N2-[4-(2-N,N-Diethylaminoethyl)aminosulfonylphenyl)-5-fluoro-N4-[3-(3-pyridinyl)methyleneoxyphenyl]-2,4-pyrimidinediamine], for which the 50% inhibitory concentration (IC50) was found to be 188 nM in assay [1] and 1080 nM in the assay with Primary human T-cells.
